Results from ChEMBL document CHEMBL1156790, “Synthesis and structure-activity relationships of antitubercular 2-nitroimidazooxazines bearing heterocyclic side chains” (J Med Chem, 2010).
In brackets after ≈: the same amount, converted by molar mass.

Test system: Mycobacterium tuberculosis
Assay: Antimycobacterial activity against Mycobacterium tuberculosis H37Rv after 16 to 24 hrs by microplate alamar blue assay
Format: functional
Details: not given

Row | SMILES | MIC [µM]
1 | N#Cc1ccc(-c2ccc(CO[C@@H]3COc4nc([N+](=O)[O-])cn4C3)s2)cc1 | 0.055 (≈ 0.021 µg/mL)
2 | Cn1nc(-c2ccc(OC(F)(F)F)cc2)cc1CO[C@@H]1COc2nc([N+](=O)[O-])cn2C1 | 0.06 (≈ 0.0264 µg/mL)
3 | O=[N+]([O-])c1cn2c(n1)OC[C@@H](OCc1ccn(-c3ccc(OC(F)(F)F)cc3)n1)C2 | 0.05 (≈ 0.0213 µg/mL)
4 | O=[N+]([O-])c1cn2c(n1)OC[C@@H](OCc1cn(-c3ccc(OC(F)(F)F)cc3)nn1)C2 | 0.075 (≈ 0.032 µg/mL)
5 | O=[N+]([O-])c1cn2c(n1)OC[C@@H](OCc1nnc(-c3ccc(F)cc3)o1)C2 | 2.4 (≈ 0.867 µg/mL)
6 | O=[N+]([O-])c1cn2c(n1)OC[C@@H](OCc1nnn(-c3ccc(OC(F)(F)F)cc3)n1)C2 | 0.035 (≈ 0.015 µg/mL)
7 | O=[N+]([O-])c1cn2c(n1)OC[C@@H](OCc1cnn(-c3ccc(OC(F)(F)F)cc3)c1)C2 | 0.15 (≈ 0.0638 µg/mL)
8 | O=[N+]([O-])c1cn2c(n1)OC[C@@H](OCc1csc(-c3ccc(C(F)(F)F)cc3)n1)C2 | 1.4 (≈ 0.597 µg/mL)
9 | O=[N+]([O-])c1cn2c(n1)OC[C@@H](OCc1nnn(-c3ccc(C(F)(F)F)cc3)n1)C2 | 0.2 (≈ 0.0823 µg/mL)
10 | COc1ccc(-c2ccc(CO[C@@H]3COc4nc([N+](=O)[O-])cn4C3)s2)cn1 | 0.22 (≈ 0.0854 µg/mL)
11 | O=[N+]([O-])c1cn2c(n1)OC[C@@H](OCc1ccc(-c3ccc(C(F)(F)F)nc3)s1)C2 | 0.05 (≈ 0.0213 µg/mL)
12 | O=[N+]([O-])c1cn2c(n1)OC[C@@H](OCc1cnn(-c3ccc(C(F)(F)F)cc3)c1)C2 | 0.54 (≈ 0.221 µg/mL)

Test system: not listed separately
Assay: Thermodynamic solubility in water at pH 7.4 at
Format: physicochemical
Details: buffer

Row | SMILES | solubility [µg/mL]
13 | Cn1nc(-c2ccc(OC(F)(F)F)cc2)cc1CO[C@@H]1COc2nc([N+](=O)[O-])cn2C1 | 0.88 (≈ 2 µM)

Same assay, conditions: water

Row | SMILES | solubility thermodynamic [µg/mL]
14 | O=[N+]([O-])c1cn2c(n1)OC[C@@H](OCc1ccn(-c3ccc(OC(F)(F)F)cc3)n1)C2 | 23 (≈ 54.1 µM)
15 | O=[N+]([O-])c1cn2c(n1)OC[C@@H](OCc1ccc(-c3ccc(OC(F)(F)F)cc3)cc1)C2 | < 0.5
16 | O=[N+]([O-])c1cn2c(n1)OC[C@@H](OCc1ccc(OC(F)(F)F)cc1)C2 [PRETOMANID] | 11 (≈ 30.6 µM)

Test system: Vero
Assay: Cytotoxicity against african green monkey Vero cells after 72 hrs by tetrazolium dye assay
Format: cell-based
Details: Chlorocebus sabaeus

Row | SMILES | IC50 [µM]
17 | N#Cc1ccc(-c2ccc(CO[C@@H]3COc4nc([N+](=O)[O-])cn4C3)s2)cc1 | > 128
18 | Cn1nc(-c2ccc(OC(F)(F)F)cc2)cc1CO[C@@H]1COc2nc([N+](=O)[O-])cn2C1 | > 128
19 | O=[N+]([O-])c1cn2c(n1)OC[C@@H](OCc1ccn(-c3ccc(OC(F)(F)F)cc3)n1)C2 | > 128
20 | O=[N+]([O-])c1cn2c(n1)OC[C@@H](OCc1cn(-c3ccc(OC(F)(F)F)cc3)nn1)C2 | > 128
21 | O=[N+]([O-])c1cn2c(n1)OC[C@@H](OCc1ccc(-c3ccc(OC(F)(F)F)cc3)cc1)C2 | > 128
22 | O=[N+]([O-])c1cn2c(n1)OC[C@@H](OCc1nnc(-c3ccc(F)cc3)o1)C2 | > 128
23 | O=[N+]([O-])c1cn2c(n1)OC[C@@H](OCc1nnn(-c3ccc(OC(F)(F)F)cc3)n1)C2 | > 128
24 | O=[N+]([O-])c1cn2c(n1)OC[C@@H](OCc1ccc(OC(F)(F)F)cc1)C2 [PRETOMANID] | > 128
25 | O=[N+]([O-])c1cn2c(n1)OC[C@@H](OCc1cnn(-c3ccc(OC(F)(F)F)cc3)c1)C2 | > 128
26 | O=[N+]([O-])c1cn2c(n1)OC[C@@H](OCc1csc(-c3ccc(C(F)(F)F)cc3)n1)C2 | > 128
27 | O=[N+]([O-])c1cn2c(n1)OC[C@@H](OCc1nnn(-c3ccc(C(F)(F)F)cc3)n1)C2 | > 128
28 | COc1ccc(-c2ccc(CO[C@@H]3COc4nc([N+](=O)[O-])cn4C3)s2)cn1 | > 128
29 | O=[N+]([O-])c1cn2c(n1)OC[C@@H](OCc1ccc(-c3ccc(C(F)(F)F)nc3)s1)C2 | > 128
30 | O=[N+]([O-])c1cn2c(n1)OC[C@@H](OCc1cnn(-c3ccc(C(F)(F)F)cc3)c1)C2 | > 128

Test system: Mycobacterium tuberculosis
Assay: Antitubercular effect in Mycobacterium tuberculosis infected BALB/c mouse assessed as CFU reduction at 100 mg/kg, po administered 5 days a week for 3 weeks relative to PA-824
Format: functional
Details: not given

Row | SMILES | fold change (FC)
31 | N#Cc1ccc(-c2ccc(CO[C@@H]3COc4nc([N+](=O)[O-])cn4C3)s2)cc1 | 0.02
32 | Cn1nc(-c2ccc(OC(F)(F)F)cc2)cc1CO[C@@H]1COc2nc([N+](=O)[O-])cn2C1 | 12
33 | O=[N+]([O-])c1cn2c(n1)OC[C@@H](OCc1ccn(-c3ccc(OC(F)(F)F)cc3)n1)C2 | 41
34 | O=[N+]([O-])c1cn2c(n1)OC[C@@H](OCc1cn(-c3ccc(OC(F)(F)F)cc3)nn1)C2 | 0.34
35 | O=[N+]([O-])c1cn2c(n1)OC[C@@H](OCc1cnn(-c3ccc(OC(F)(F)F)cc3)c1)C2 | 1.5
36 | O=[N+]([O-])c1cn2c(n1)OC[C@@H](OCc1ccc(-c3ccc(C(F)(F)F)nc3)s1)C2 | 2.3

Test system: not listed separately
Assay: Metabolic stability in mouse liver microsomes after 1 hr at 37 degC
Format: ADME, Microsome
Details: liver microsomes, read-out: Stability

Row | SMILES | remaining at 1 h [%]
37 | N#Cc1ccc(-c2ccc(CO[C@@H]3COc4nc([N+](=O)[O-])cn4C3)s2)cc1 | 54
38 | Cn1nc(-c2ccc(OC(F)(F)F)cc2)cc1CO[C@@H]1COc2nc([N+](=O)[O-])cn2C1 | 81
39 | O=[N+]([O-])c1cn2c(n1)OC[C@@H](OCc1cn(-c3ccc(OC(F)(F)F)cc3)nn1)C2 | 74
40 | O=[N+]([O-])c1cn2c(n1)OC[C@@H](OCc1nnn(-c3ccc(OC(F)(F)F)cc3)n1)C2 | 81
41 | O=[N+]([O-])c1cn2c(n1)OC[C@@H](OCc1cnn(-c3ccc(OC(F)(F)F)cc3)c1)C2 | 64
42 | O=[N+]([O-])c1cn2c(n1)OC[C@@H](OCc1ccc(-c3ccc(C(F)(F)F)nc3)s1)C2 | 77

Same assay, conditions: microsomes, 1 h

Row | SMILES | Stability [%]
43 | O=[N+]([O-])c1cn2c(n1)OC[C@@H](OCc1ccn(-c3ccc(OC(F)(F)F)cc3)n1)C2 | 67

Test system: Mycobacterium tuberculosis
Assay: Antimycobacterial activity against Mycobacterium tuberculosis H37Rv expressing pFCA-luxAB after 10 days by luminescence-based low-oxygen recovery assay
Format: functional
Details: 240 h

Row | SMILES | MIC [µM]
44 | N#Cc1ccc(-c2ccc(CO[C@@H]3COc4nc([N+](=O)[O-])cn4C3)s2)cc1 | 1.7 (≈ 0.65 µg/mL)
45 | Cn1nc(-c2ccc(OC(F)(F)F)cc2)cc1CO[C@@H]1COc2nc([N+](=O)[O-])cn2C1 | 0.58 (≈ 0.255 µg/mL)
46 | O=[N+]([O-])c1cn2c(n1)OC[C@@H](OCc1ccn(-c3ccc(OC(F)(F)F)cc3)n1)C2 | 0.61 (≈ 0.259 µg/mL)
47 | O=[N+]([O-])c1cn2c(n1)OC[C@@H](OCc1cn(-c3ccc(OC(F)(F)F)cc3)nn1)C2 | 3.3 (≈ 1.41 µg/mL)
48 | O=[N+]([O-])c1cn2c(n1)OC[C@@H](OCc1ccc(-c3ccc(OC(F)(F)F)cc3)cc1)C2 | 1.3 (≈ 0.566 µg/mL)
49 | O=[N+]([O-])c1cn2c(n1)OC[C@@H](OCc1nnc(-c3ccc(F)cc3)o1)C2 | 17 (≈ 6.14 µg/mL)
50 | O=[N+]([O-])c1cn2c(n1)OC[C@@H](OCc1nnn(-c3ccc(OC(F)(F)F)cc3)n1)C2 | 1.3 (≈ 0.555 µg/mL)
51 | O=[N+]([O-])c1cn2c(n1)OC[C@@H](OCc1ccc(OC(F)(F)F)cc1)C2 [PRETOMANID] | 2.6 (≈ 0.934 µg/mL)
52 | O=[N+]([O-])c1cn2c(n1)OC[C@@H](OCc1cnn(-c3ccc(OC(F)(F)F)cc3)c1)C2 | 1.8 (≈ 0.766 µg/mL)
53 | O=[N+]([O-])c1cn2c(n1)OC[C@@H](OCc1csc(-c3ccc(C(F)(F)F)cc3)n1)C2 | 3 (≈ 1.28 µg/mL)
54 | O=[N+]([O-])c1cn2c(n1)OC[C@@H](OCc1nnn(-c3ccc(C(F)(F)F)cc3)n1)C2 | 1.4 (≈ 0.576 µg/mL)
55 | COc1ccc(-c2ccc(CO[C@@H]3COc4nc([N+](=O)[O-])cn4C3)s2)cn1 | 4.5 (≈ 1.75 µg/mL)
56 | O=[N+]([O-])c1cn2c(n1)OC[C@@H](OCc1ccc(-c3ccc(C(F)(F)F)nc3)s1)C2 | 4.4 (≈ 1.88 µg/mL)
57 | O=[N+]([O-])c1cn2c(n1)OC[C@@H](OCc1cnn(-c3ccc(C(F)(F)F)cc3)c1)C2 | 2.3 (≈ 0.941 µg/mL)

Test system: not listed separately
Assay: Solubility in water at pH 7 at 20 degC
Format: physicochemical
Details: not given

Row | SMILES | solubility [µg/mL]
58 | O=[N+]([O-])c1cn2c(n1)OC[C@@H](OCc1nnc(-c3ccc(F)cc3)o1)C2 | 108 (≈ 299 µM)
59 | O=[N+]([O-])c1cn2c(n1)OC[C@@H](OCc1csc(-c3ccc(C(F)(F)F)cc3)n1)C2 | 2.8 (≈ 6.57 µM)
60 | O=[N+]([O-])c1cn2c(n1)OC[C@@H](OCc1nnn(-c3ccc(C(F)(F)F)cc3)n1)C2 | 5 (≈ 12.2 µM)
61 | COc1ccc(-c2ccc(CO[C@@H]3COc4nc([N+](=O)[O-])cn4C3)s2)cn1 | 2.2 (≈ 5.66 µM)
62 | O=[N+]([O-])c1cn2c(n1)OC[C@@H](OCc1ccc(-c3ccc(C(F)(F)F)nc3)s1)C2 | 8.9 (≈ 20.9 µM)
63 | O=[N+]([O-])c1cn2c(n1)OC[C@@H](OCc1cnn(-c3ccc(C(F)(F)F)cc3)c1)C2 | 4.9 (≈ 12 µM)

Test system: Liver microsomes
Assay: (§1) Metabolic stability in human liver microsomes after 1 hr at 37 degC
Format: ADME, Microsome
Details: microsomes, 1 h

Row | SMILES | Stability [%]
64 | O=[N+]([O-])c1cn2c(n1)OC[C@@H](OCc1ccn(-c3ccc(OC(F)(F)F)cc3)n1)C2 | 87

Test system: not listed separately
Assay: as §1
Format: ADME, Microsome
Details: liver microsomes, read-out: Stability

Row | SMILES | remaining at 1 h [%]
65 | N#Cc1ccc(-c2ccc(CO[C@@H]3COc4nc([N+](=O)[O-])cn4C3)s2)cc1 | 85
66 | Cn1nc(-c2ccc(OC(F)(F)F)cc2)cc1CO[C@@H]1COc2nc([N+](=O)[O-])cn2C1 | 86
67 | O=[N+]([O-])c1cn2c(n1)OC[C@@H](OCc1cn(-c3ccc(OC(F)(F)F)cc3)nn1)C2 | 99
68 | O=[N+]([O-])c1cn2c(n1)OC[C@@H](OCc1cnn(-c3ccc(OC(F)(F)F)cc3)c1)C2 | 87
69 | O=[N+]([O-])c1cn2c(n1)OC[C@@H](OCc1ccc(-c3ccc(C(F)(F)F)nc3)s1)C2 | 85
